Assay results reported in patent US20260070945A1, “MACROCYCLIC IMMUNOMODULATORS” (Bristol-Myers Squibb Company, priority 2022, published 2026).
Where a SMILES comes first, the peptide text is derived from it. Bridges are numbered along the chain shown (N, C = ends). [ ]: non-standard residue; d: D form. The star is where a group is joined. ξ: configuration not given here. Phe(3-CF3) = N[C@@H](Cc1cccc(C(F)(F)F)c1)C(=O)O; Phe(4-COOH) = N[C@@H](Cc1ccc(C(=O)O)cc1)C(=O)O; Bip = N[C@@H](Cc1ccc(-c2ccccc2)cc1)C(=O)O; Phe(3-Me) = Cc1cccc(C[C@H](N)C(=O)O)c1; Phe(4-F) = N[C@@H](Cc1ccc(F)cc1)C(=O)O; NH(CH2)12COOH = O=C(O)CCCCCCCCCCCCN*; Val(3-OH) = CC(C)(O)[C@H](N)C(=O)O; Cha = N[C@@H](CC1CCCCC1)C(=O)O; Thr(3ξ) = CC(O)[C@H](N)C(=O)O; Carboxymethyl = O=C(O)C*; NMeA = CN[C@@H](C)C(=O)O; Aun = NCCCCCCCCCCC(=O)O; Dab = NCC[C@H](N)C(=O)O; Nva = CCC[C@H](N)C(=O)O; AEEA = NCCOCCOCC(=O)O

The molecules below were run against T1, PD-1/PD-L1 interaction (PE-labeled human PD-L1-Ig binding to Jurkat cell line over-expressing human PD-1) (Homo sapiens, UniProt Q15116) (assay: Jurkat-PD-1 Cell Binding High-Content Screening Assay (CBA)). Conditions: PE-labeled PD-L1-Ig 20 nM final, Jurkat-hPD-1 cells; read-out: Jurkat HPD1 PDL1 IC50.
T1 construct: expressed in transfected cells; host or cells: Jurkat
T1 sequence (Q15116 25-288): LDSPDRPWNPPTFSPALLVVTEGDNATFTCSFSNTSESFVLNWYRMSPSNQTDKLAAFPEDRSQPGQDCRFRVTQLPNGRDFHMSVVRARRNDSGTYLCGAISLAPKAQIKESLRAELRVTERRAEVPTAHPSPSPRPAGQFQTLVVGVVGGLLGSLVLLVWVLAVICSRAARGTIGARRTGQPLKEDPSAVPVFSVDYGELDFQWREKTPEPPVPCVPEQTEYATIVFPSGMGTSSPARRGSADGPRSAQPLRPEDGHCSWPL
Summary of the method: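 Jurkat cells overexpressing human PD-1 (8×10^3/well, DMEM + 10% FCS) preincubated with compound 2 h at 37 °C, then PE-labelled human PD-L1-Ig (20 nM final) for 1 h. Cells fixed in paraformaldehyde with Hoechst 33342; bound PD-L1 quantified by high-content imaging.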

Row | IC50 | SMILES
1 | 2.1 nM | Cc1cccc(C[C@@H]2NC(=O)[C@H](CC(=O)O)NC(=O)[C@H](Cc3ccc(OCC(=O)O)cc3)NC(=O)[C@H](Cc3ccc(F)cc3)NC(=O)CSC[C@@H](C(=O)N[C@@H](CCN)C(=O)NCCOCCOCC(=O)NCCCCCCCCCCC(=O)O)NC(=O)[C@H](CCC(=O)O)NC(=O)[C@H](C(C)C)NC(=O)[C@H](CC3CCCCC3)NC(=O)[C@H](CCN)NC(=O)[C@@H](CC(C)C)NC(=O)[C@H](C)N(C)C(=O)[C@H](Cc3ccc(OCC(=O)O)cc3)NC(=O)[C@H](Cc3ccc(-c4ccccc4)cc3)NC(=O)[C@H](Cc3ccc(OCC(=O)O)cc3)NC2=O)c1 [Example 2560] ({CH2CO}-[Phe(4-F)]Y(Carboxymethyl)D[Phe(3-Me)]Y(Carboxymethyl)[Bip]Y(Carboxymethyl)[NMeA][dL][Dab][Cha]VEC[Dab][AEEA][Aun]-OH; thioether N-14)
2 | 24.1 nM | CCC[C@@H]1NC(=O)CSC[C@@H](C(=O)N[C@@H](CCN)C(=O)NCCOCCOCC(=O)NCCCCCCCCCCC(=O)O)NC(=O)[C@H](CCC(=O)O)NC(=O)[C@H](CO)NC(=O)[C@H](CC2CCCCC2)NC(=O)[C@H](CCN)NC(=O)[C@@H](CC(C)C)NC(=O)[C@H](C)N(C)C(=O)[C@H](Cc2ccc(OCC(=O)O)cc2)NC(=O)[C@H](Cc2ccc(-c3ccccc3)cc2)NC(=O)[C@H](Cc2ccc(OCC(=O)O)cc2)NC(=O)[C@H](Cc2cccc(C)c2)NC(=O)[C@H](CC(=O)O)NC(=O)[C@H](Cc2ccc(C(=O)O)cc2)NC1=O [Example 2561] ({CH2CO}-[Nva][Phe(4-COOH)]D[Phe(3-Me)]Y(Carboxymethyl)[Bip]Y(Carboxymethyl)[NMeA][dL][Dab][Cha]SEC[Dab][AEEA][Aun]-OH; thioether N-14)
3 | 2.1 nM | Cc1cccc(C[C@@H]2NC(=O)[C@H](CC(=O)O)NC(=O)[C@H](Cc3ccc(C(=O)O)cc3)NC(=O)[C@H](C(C)O)NC(=O)CSC[C@@H](C(=O)N[C@@H](CCN)C(=O)NCCOCCOCC(=O)NCCCCCCCCCCC(=O)O)NC(=O)[C@H](CO)NC(=O)[C@H](C(C)(C)O)NC(=O)[C@H](CC3CCCCC3)NC(=O)[C@H](CCN)NC(=O)[C@@H](CC(C)C)NC(=O)[C@H](C)N(C)C(=O)[C@H](Cc3ccc(C(=O)O)cc3)NC(=O)[C@H](Cc3ccc(-c4ccccc4)cc3)NC(=O)[C@H](Cc3ccc(C(=O)O)cc3)NC2=O)c1 (stereo partly drawn) [Example 2562] ({CH2CO}-[Thr(3ξ)][Phe(4-COOH)]D[Phe(3-Me)][Phe(4-COOH)][Bip][Phe(4-COOH)][NMeA][dL][Dab][Cha][Val(3-OH)]SC[Dab][AEEA][Aun]-OH; thioether N-14)
4 | 4.6 nM | CC(=O)NCCCC[C@@H]1NC(=O)[C@H](C(C)(C)O)NC(=O)[C@H](CC2CCCCC2)NC(=O)[C@H](CCN)NC(=O)[C@@H](CC(C)C)NC(=O)[C@H](C)N(C)C(=O)[C@H](CCC(N)=O)NC(=O)[C@H](Cc2ccc(-c3ccccc3)cc2)NC(=O)[C@H](Cc2ccc(C(=O)O)cc2)NC(=O)[C@H](Cc2cccc(C)c2)NC(=O)[C@H](CC(=O)O)NC(=O)[C@H](Cc2ccc(OCC(=O)O)cc2)NC(=O)[C@H](Cc2ccc(OCC(=O)O)cc2)NC(=O)CSC[C@@H](C(=O)N[C@@H](CCN)C(=O)NCCCCCCCCCCCCC(=O)O)NC1=O [Example 2563] ({CH2CO}-Y(Carboxymethyl)Y(Carboxymethyl)D[Phe(3-Me)][Phe(4-COOH)][Bip]Q[NMeA][dL][Dab][Cha][Val(3-OH)]K(Ac)C[Dab]-{NH(CH2)12COOH}; thioether N-14)
5 | 1.1 nM | CC(=O)NCCCC[C@@H]1NC(=O)[C@H](C(C)(C)O)NC(=O)[C@H](CC2CCCCC2)NC(=O)[C@H](CCN)NC(=O)[C@@H](CC(C)C)NC(=O)[C@H](C)N(C)C(=O)[C@H](CCC(N)=O)NC(=O)[C@H](Cc2ccc(-c3ccccc3)cc2)NC(=O)[C@H](Cc2ccc(C(=O)O)cc2)NC(=O)[C@H](Cc2cccc(C(F)(F)F)c2)NC(=O)[C@H](CC(=O)O)NC(=O)[C@H](Cc2ccc(OCC(=O)O)cc2)NC(=O)[C@H](Cc2ccc(OCC(=O)O)cc2)NC(=O)CSC[C@@H](C(=O)N[C@@H](CCN)C(=O)NCCCCCCCCCCC(=O)O)NC1=O [Example 2564] ({CH2CO}-Y(Carboxymethyl)Y(Carboxymethyl)D[Phe(3-CF3)][Phe(4-COOH)][Bip]Q[NMeA][dL][Dab][Cha][Val(3-OH)]K(Ac)C[Dab][Aun]-OH; thioether N-14)

Continued, molecule first:

Row | SMILES | IC50
6 | Cc1cccc(C[C@@H]2NC(=O)[C@H](CC(=O)O)NC(=O)[C@H](Cc3ccc(OCC(=O)O)cc3)NC(=O)[C@H](C(C)O)NC(=O)CSC[C@@H](C(=O)N[C@@H](CCN)C(=O)NCCOCCOCC(=O)NCCCCCCCCCCC(=O)O)NC(=O)[C@H](CCC(=O)O)NC(=O)[C@H](C(C)C)NC(=O)[C@H](CC3CCCCC3)NC(=O)[C@H](CCN)NC(=O)[C@@H](CC(C)C)NC(=O)[C@H](C)N(C)C(=O)[C@H](Cc3ccc(C(=O)O)cc3)NC(=O)[C@H](Cc3ccc(-c4ccccc4)cc3)NC(=O)[C@H](Cc3ccc(C(=O)O)cc3)NC2=O)c1 (stereo partly drawn) [Example 2553] ({CH2CO}-[Thr(3ξ)]Y(Carboxymethyl)D[Phe(3-Me)][Phe(4-COOH)][Bip][Phe(4-COOH)][NMeA][dL][Dab][Cha]VEC[Dab][AEEA][Aun]-OH; thioether N-14) | 4.8 nM
7 | Cc1cccc(C[C@@H]2NC(=O)[C@H](CC(=O)O)NC(=O)[C@H](Cc3ccc(C(=O)O)cc3)NC(=O)[C@H](CCN)NC(=O)CSC[C@@H](C(=O)N[C@@H](CCN)C(=O)NCCCCCCCCCCC(=O)O)NC(=O)[C@H](Cc3cnc[nH]3)NC(=O)[C@H](C(C)(C)O)NC(=O)[C@H](CC3CCCCC3)NC(=O)[C@H](CCN)NC(=O)[C@@H](CC(C)C)NC(=O)[C@H](C)N(C)C(=O)[C@H](Cc3ccc(C(=O)O)cc3)NC(=O)[C@H](Cc3ccc(-c4ccccc4)cc3)NC(=O)[C@H](Cc3ccc(C(=O)O)cc3)NC2=O)c1 [Example 2554] ({CH2CO}-[Dab][Phe(4-COOH)]D[Phe(3-Me)][Phe(4-COOH)][Bip][Phe(4-COOH)][NMeA][dL][Dab][Cha][Val(3-OH)]HC[Dab][Aun]-OH; thioether N-14) | 8.6 nM
8 | Cc1cccc(C[C@@H]2NC(=O)[C@H](CC(=O)O)NC(=O)[C@H](Cc3ccc(C(=O)O)cc3)NC(=O)[C@H](C(C)O)NC(=O)CSC[C@@H](C(=O)N[C@@H](CCN)C(=O)NCCOCCOCC(=O)NCCCCCCCCCCC(=O)O)NC(=O)[C@H](CCC(=O)O)NC(=O)[C@H](C(C)O)NC(=O)[C@H](CC3CCCCC3)NC(=O)[C@H](CCN)NC(=O)[C@@H](CC(C)C)NC(=O)[C@H](C)N(C)C(=O)[C@H](Cc3ccc(C(=O)O)cc3)NC(=O)[C@H](Cc3ccc(-c4ccccc4)cc3)NC(=O)[C@H](Cc3ccc(C(=O)O)cc3)NC2=O)c1 (stereo partly drawn) [Example 2555] ({CH2CO}-[Thr(3ξ)][Phe(4-COOH)]D[Phe(3-Me)][Phe(4-COOH)][Bip][Phe(4-COOH)][NMeA][dL][Dab][Cha][Thr(3ξ)]EC[Dab][AEEA][Aun]-OH; thioether N-14) | 20.2 nM
9 | Cc1cccc(C[C@@H]2NC(=O)[C@H](CC(=O)O)NC(=O)[C@H](Cc3ccc(C(=O)O)cc3)NC(=O)[C@H](C(C)O)NC(=O)CSC[C@@H](C(=O)N[C@@H](CCN)C(=O)NCCOCCOCC(=O)NCCCCCCCCCCC(=O)O)NC(=O)[C@H](CCC(=O)O)NC(=O)[C@H](CO)NC(=O)[C@H](CC3CCCCC3)NC(=O)[C@H](CCN)NC(=O)[C@@H](CC(C)C)NC(=O)[C@H](C)N(C)C(=O)[C@H](Cc3ccc(C(=O)O)cc3)NC(=O)[C@H](Cc3ccc(-c4ccccc4)cc3)NC(=O)[C@H](Cc3ccc(C(=O)O)cc3)NC2=O)c1 (stereo partly drawn) [Example 2556] ({CH2CO}-[Thr(3ξ)][Phe(4-COOH)]D[Phe(3-Me)][Phe(4-COOH)][Bip][Phe(4-COOH)][NMeA][dL][Dab][Cha]SEC[Dab][AEEA][Aun]-OH; thioether N-14) | 41.2 nM
10 | Cc1cccc(C[C@@H]2NC(=O)[C@H](CC(=O)O)NC(=O)[C@H](Cc3ccc(C(=O)O)cc3)NC(=O)[C@H](C(C)O)NC(=O)CSC[C@@H](C(=O)N[C@@H](CCN)C(=O)NCCOCCOCC(=O)NCCCCCCCCCCC(=O)O)NC(=O)[C@H](CC(=O)O)NC(=O)[C@H](C(C)C)NC(=O)[C@H](CC3CCCCC3)NC(=O)[C@H](CCN)NC(=O)[C@@H](CC(C)C)NC(=O)[C@H](C)N(C)C(=O)[C@H](Cc3ccc(C(=O)O)cc3)NC(=O)[C@H](Cc3ccc(-c4ccccc4)cc3)NC(=O)[C@H](Cc3ccc(C(=O)O)cc3)NC2=O)c1 (stereo partly drawn) [Example 2557] ({CH2CO}-[Thr(3ξ)][Phe(4-COOH)]D[Phe(3-Me)][Phe(4-COOH)][Bip][Phe(4-COOH)][NMeA][dL][Dab][Cha]VDC[Dab][AEEA][Aun]-OH; thioether N-14) | 0.7 nM
11 | Cc1cccc(C[C@@H]2NC(=O)[C@H](CC(=O)O)NC(=O)[C@H](Cc3ccc(OCC(=O)O)cc3)NC(=O)[C@H](C(C)O)NC(=O)CSC[C@@H](C(=O)N[C@@H](CCN)C(=O)NCCOCCOCC(=O)NCCCCCCCCCCC(=O)O)NC(=O)[C@H](CC(=O)O)NC(=O)[C@H](C(C)C)NC(=O)[C@H](CC3CCCCC3)NC(=O)[C@H](CCN)NC(=O)[C@@H](CC(C)C)NC(=O)[C@H](C)N(C)C(=O)[C@H](Cc3ccc(OCC(=O)O)cc3)NC(=O)[C@H](Cc3ccc(-c4ccccc4)cc3)NC(=O)[C@H](Cc3ccc(OCC(=O)O)cc3)NC2=O)c1 (stereo partly drawn) [Example 2558] ({CH2CO}-[Thr(3ξ)]Y(Carboxymethyl)D[Phe(3-Me)]Y(Carboxymethyl)[Bip]Y(Carboxymethyl)[NMeA][dL][Dab][Cha]VDC[Dab][AEEA][Aun]-OH; thioether N-14) | 11.6 nM
12 | Cc1cccc(C[C@@H]2NC(=O)[C@H](CC(=O)O)NC(=O)[C@H](Cc3ccc(OCC(=O)O)cc3)NC(=O)[C@H](Cc3ccc(F)cc3)NC(=O)CSC[C@@H](C(=O)N[C@@H](CCN)C(=O)NCCOCCOCC(=O)NCCCCCCCCCCC(=O)O)NC(=O)[C@H](CC(=O)O)NC(=O)[C@H](C(C)C)NC(=O)[C@H](CC3CCCCC3)NC(=O)[C@H](CCN)NC(=O)[C@@H](CC(C)C)NC(=O)[C@H](C)N(C)C(=O)[C@H](Cc3ccc(OCC(=O)O)cc3)NC(=O)[C@H](Cc3ccc(-c4ccccc4)cc3)NC(=O)[C@H](Cc3ccc(OCC(=O)O)cc3)NC2=O)c1 [Example 2559] ({CH2CO}-[Phe(4-F)]Y(Carboxymethyl)D[Phe(3-Me)]Y(Carboxymethyl)[Bip]Y(Carboxymethyl)[NMeA][dL][Dab][Cha]VDC[Dab][AEEA][Aun]-OH; thioether N-14) | 28.6 nM
